Each structure is given as a SMILES string.

Data set [1] deals with T1, Bifunctional epoxide hydrolase 2 (Homo sapiens, UniProt P34913).
T1 sequence (P34913 whole entry): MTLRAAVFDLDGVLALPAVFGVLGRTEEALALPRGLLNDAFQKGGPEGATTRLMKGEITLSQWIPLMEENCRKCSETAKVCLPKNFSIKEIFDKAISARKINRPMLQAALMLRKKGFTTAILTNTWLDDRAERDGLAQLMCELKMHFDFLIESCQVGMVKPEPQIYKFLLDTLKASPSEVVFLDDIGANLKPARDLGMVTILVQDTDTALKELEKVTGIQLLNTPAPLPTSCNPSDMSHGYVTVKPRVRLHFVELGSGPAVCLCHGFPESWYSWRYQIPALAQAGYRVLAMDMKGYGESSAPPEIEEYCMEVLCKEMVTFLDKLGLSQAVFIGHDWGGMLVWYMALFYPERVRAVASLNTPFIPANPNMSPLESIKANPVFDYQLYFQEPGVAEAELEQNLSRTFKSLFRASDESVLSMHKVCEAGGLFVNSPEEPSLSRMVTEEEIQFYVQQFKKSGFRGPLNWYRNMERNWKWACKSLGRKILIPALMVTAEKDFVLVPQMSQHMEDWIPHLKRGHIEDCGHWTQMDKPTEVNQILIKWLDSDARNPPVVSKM
In words: Inhibition of human sEH assessed as 6-methoxy-2-naphthaldehyde generation preincubated for 10 before addition of cyano(2-methyl-oxynaphthalen-6-yl)methyl trans-(3-phenyloxyran-2-yl) methyl carbonate by fluorescence analysis.

A further data set has as its system Liver microsomes. In words: Half life in human liver microsomes after 90 mins by LC/MS analysis. The class given is ADME, Microsome. The following applies: 1.5 h. For orientation: Liver microsomes are vesicles of endoplasmic reticulum, rich in cytochrome P450 enzymes.

Regarding `Cc1ccc(S(=O)(=O)N2CCC(C(=O)Nc3ccc4ncccc4c3)CC2)c(C)c1`, in data set [1], the 50% inhibitory concentration (IC50) was found to be 13 nM. With `COC(=O)c1ccc2cc(NC(=O)C3CCN(S(=O)(=O)c4ccc(C)cc4C)CC3)ccc2c1`, in data set [1], the IC50 was found to be 110 nM. As to `Cc1ccc(S(=O)(=O)N2CCC(C(=O)Nc3ccc4c(c3)OCO4)CC2)c(C)c1`, the IC50 in data set [1] is 5.2 nM. Moreover, in the data set with Liver microsomes, the t1/2 was determined as 46 min. Turning to `Cc1ccc(S(=O)(=O)N2CCC(C(=O)NC3CC3)CC2)c(C)c1`, in the data set on Liver microsomes, the t1/2 is 180 min.

On to `Cc1ccc(S(=O)(=O)N2CCC(C(=O)NC3CCCc4ccccc43)CC2)c(C)c1` (stereo unspecified), for which, in data set [1], the concentration for half-maximal inhibition (IC50) was found to be 41 nM. As for `Cc1ccc(S(=O)(=O)N2CCC(C(=O)Nc3ccccc3)CC2)c(C)c1`, the half-inhibitory concentration (IC50) in data set [1] turned out to be 6.9 nM. As for `Cc1ccc(S(=O)(=O)N2CCC(C(=O)Nc3ccccc3Cl)CC2)c(C)c1`, the concentration for half-maximal inhibition (IC50) in data set [1] turned out to be 8.7 nM. For the compound `Cc1ccc(S(=O)(=O)N2CCC(C(=O)Nc3ccccc3C)CC2)c(C)c1`, in data set [1], the IC50 came out at 20 nM.

In the case of `COc1ccc(NC(=O)C2CCN(S(=O)(=O)c3ccc(C)cc3C)CC2)cc1`, in data set [1], the concentration for half-maximal inhibition (IC50) amounted to 25 nM. For the compound `Cc1ccc(S(=O)(=O)N2CCC(C(=O)Nc3ccc(Oc4ccccc4)cc3)CC2)c(C)c1`, the IC50 in data set [1] was determined as 20 nM. The same measure, in the same setting: with `Cc1ccc(S(=O)(=O)N2CCC(C(=O)Nc3ccc(C(=O)O)cc3)CC2)c(C)c1` the figure was 17 nM. For `Cc1ccc(S(=O)(=O)N2CCC(C(=O)Nc3ccc([N+](=O)[O-])cc3)CC2)c(C)c1`, the IC50 in data set [1] turned out to be 12 nM. As to `Cc1ccc(S(=O)(=O)N2CCC(C(=O)Nc3ccc(N4CCCCC4)c(C(N)=O)c3)CC2)c(C)c1`, the IC50 in data set [1] was determined as 43 nM. On to `Cc1ccc(S(=O)(=O)N2CCC(C(=O)Nc3ccc(C(C)C)cc3)CC2)c(C)c1`, for which the concentration for half-maximal inhibition (IC50) in data set [1] is 6.7 nM. Besides, the t1/2 in the data set with Liver microsomes is listed as 25 min. Regarding `Cc1ccc(S(=O)(=O)N2CCC(C(=O)Nc3ccc(S(=O)(=O)C(F)(F)F)cc3)CC2)c(C)c1`, the 50% inhibitory concentration (IC50) in data set [1] was found to be 1.6 nM. The t1/2 with Liver microsomes stood at 36 min. Take `Cc1ccc(S(=O)(=O)N2CCC(C(=O)Nc3ccc(F)cc3)CC2)c(C)c1`: the concentration for half-maximal inhibition (IC50) in data set [1] turned out to be 290 nM. Regarding `Cc1ccc(S(=O)(=O)N2CCC(C(=O)Nc3ccc(Br)cc3)CC2)c(C)c1`, the IC50 in data set [1] stood at 45 nM. Regarding `Cc1ccc(S(=O)(=O)N2CCC(C(=O)Nc3ccc(Cl)c(C(F)(F)F)c3)CC2)c(C)c1`, the half-maximal inhibitory concentration (IC50) in data set [1] was 78 nM. As to `Cc1ccc(S(=O)(=O)N2CCC(C(=O)Nc3ccc4ccccc4c3)CC2)c(C)c1`, the IC50 in data set [1] amounted to 8.3 nM. Besides, the t1/2 in the data set on Liver microsomes came out at 8.7 min.

Take `Cc1ccc(S(=O)(=O)N2CCC(C(=O)Nc3cnc4ccccc4c3)CC2)c(C)c1`: the concentration for half-maximal inhibition (IC50) in data set [1] was found to be 2.3 nM. Regarding `Cc1ccc(S(=O)(=O)N2CCC(C(=O)Nc3cccc4cnccc34)CC2)c(C)c1`, in data set [1], the 50% inhibitory concentration (IC50) was 23 nM. Besides, the t1/2 with Liver microsomes is listed as 220 min.

Turning to `Cc1ccc(S(=O)(=O)N2CCC(C(=O)Nc3ccc4cc(C(=O)O)ccc4c3)CC2)c(C)c1`, the half-maximal inhibitory concentration (IC50) in data set [1] came out at 0.6 nM. This compound also gave a t1/2 in the data set with Liver microsomes of 36 min. In the case of `COc1cc2c(cc1NC(=O)C1CCN(S(=O)(=O)c3ccc(C)cc3C)CC1)OCO2`, in data set [1], the IC50 was found to be 30000 nM. On to `Cc1ccc(S(=O)(=O)N2CCC(C(=O)N[C@H]3C[C@@H]3c3ccccc3)CC2)c(C)c1`, for which the concentration for half-maximal inhibition (IC50) in data set [1] came out at 6900 nM. The compound `Cc1ccc(S(=O)(=O)N2CCC(C(=O)NC3CCCC3)CC2)c(C)c1` displayed a t1/2 in the data set on Liver microsomes of 14 min. Turning to `Cc1ccc(S(=O)(=O)N2CCC(C(=O)NC34CC5CC(CC(C5)C3)C4)CC2)c(C)c1`, the half-maximal inhibitory concentration (IC50) in data set [1] turned out to be 1.7 nM. The compound also had a t1/2 in the data set with Liver microsomes of 14 min.

For the compound `Cc1ccc(S(=O)(=O)N2CCC(C(=O)Nc3ccccc3F)CC2)c(C)c1`, in data set [1], the half-maximal inhibitory concentration (IC50) was 1.1 nM. For the compound `Cc1ccc(S(=O)(=O)N2CCC(C(=O)Nc3ccccc3Br)CC2)c(C)c1`, the IC50 in data set [1] was 0.6 nM.

As for `Cc1ccc(S(=O)(=O)N2CCC(C(=O)Nc3ccccc3O)CC2)c(C)c1`, the concentration for half-maximal inhibition (IC50) in data set [1] was 1.2 nM. Also, in the data set with Liver microsomes, the t1/2 was 2.4 min.

`Cc1ccc(S(=O)(=O)N2CCC(C(=O)Nc3ccc(O)cc3)CC2)c(C)c1`: the half-inhibitory concentration (IC50) in data set [1] came out at 0.4 nM. `COC(=O)c1ccc(NC(=O)C2CCN(S(=O)(=O)c3ccc(C)cc3C)CC2)cc1`: the concentration for half-maximal inhibition (IC50) in data set [1] is 8.5 nM. Moreover, the t1/2 in the data set on Liver microsomes turned out to be 3.7 min. As to `Cc1ccc(S(=O)(=O)N2CCC(C(=O)Nc3ccc(OC(F)(F)F)cc3)CC2)c(C)c1`, in data set [1], the IC50 turned out to be 23 nM.

`Cc1ccc(S(=O)(=O)N2CCC(C(=O)Nc3ccc(N4CCCCC4)cc3)CC2)c(C)c1`: the half-inhibitory concentration (IC50) in data set [1] was found to be 20 nM. For the compound `Cc1ccc(S(=O)(=O)N2CCC(C(=O)Nc3ccc(N4CCOCC4)cc3)CC2)c(C)c1`, the concentration for half-maximal inhibition (IC50) in data set [1] was 250 nM. On the same count and under the same terms, with `Cc1ccc(S(=O)(=O)N2CCC(C(=O)Nc3ccc(C(F)(F)F)cc3)CC2)c(C)c1` the figure was 30 nM. Regarding `Cc1ccc(S(=O)(=O)N2CCC(C(=O)Nc3cccc(C(F)(F)F)c3)CC2)c(C)c1`, in data set [1], the IC50 was found to be 640 nM. As to `Cc1ccc(S(=O)(=O)N2CCC(C(=O)Nc3ccc(Cl)cc3)CC2)c(C)c1`, the 50% inhibitory concentration (IC50) in data set [1] amounted to 2200 nM. The same measure, in the same setting: with `Cc1ccc(S(=O)(=O)N2CCC(C(=O)Nc3cc(Cl)cc(Cl)c3)CC2)c(C)c1` the figure was 25 nM; with `Cc1ccc(S(=O)(=O)N2CCC(C(=O)Nc3ccc(Cl)c(Cl)c3)CC2)c(C)c1`, 55 nM. Take `Cc1ccc(S(=O)(=O)N2CCC(C(=O)Nc3cccc4cccnc34)CC2)c(C)c1`: the half-inhibitory concentration (IC50) in data set [1] was 6 nM. Further, the t1/2 in the data set with Liver microsomes turned out to be 11 min. With `Cc1ccc(S(=O)(=O)N2CCC(C(=O)NCC(C)C)CC2)c(C)c1`, the concentration for half-maximal inhibition (IC50) in data set [1] is 18 nM.

As a reminder, the IC50 is the concentration needed to halve the response being measured.

Source of the values: ChEMBL document CHEMBL2311251, “Synthesis and structure-activity relationship of piperidine-derived non-urea soluble epoxide hydrolase inhibitors” (Bioorg Med Chem Lett, 2013).
